Assay results: article PMC9533837 (Antiviral Research, 2003)
In brackets after ≈: the same amount, converted by molar mass. Entries after “also recorded” stand apart in the source; their conditions may differ. Read-outs that look alike come from different tables or passages of the source.

Legend:
[1] = tested on: orthopoxviruses (VAR-BSH, VAR-YAM, VAR-GAR, MPX, CPX, VAC); assay: organism not typed; assay type: cell-based
VAC = details: cited from earlier work
[2] = tested on: VAR-BSH (1975 Bangladesh isolate of VAR major); assay: organism not typed; assay type: cell-based, variola major; details: for IC50: Vero, read-out: IC50 VAR-BSH Vero
[3] = tested on: VAR-BSH (1975 Bangladesh isolate of VAR major); assay: organism not typed; assay type: cell-based, variola major; details: for IC50: LLC-MK2, read-out: IC50 VAR-BSH LLC-MK2
[4] = tested on: VAR-YAM (1946 Japan Yamada isolate of VAR major); assay: organism not typed; assay type: cell-based, variola major; details: for IC50: Vero, read-out: IC50 VAR-YAM Vero
[5] = tested on: VAR-YAM (1946 Japan Yamada isolate of VAR major); assay: organism not typed; assay type: cell-based, variola major; details: for IC50: LLC-MK2, read-out: IC50 VAR-YAM LLC-MK2
[6] = tested on: VAR-GAR (1966 Brazil Garcia isolate of VAR minor); assay: organism not typed; assay type: cell-based, variola minor; details: for IC50: Vero, read-out: IC50 VAR-GAR Vero
[7] = tested on: VAR-GAR (1966 Brazil Garcia isolate of VAR minor); assay: organism not typed; assay type: cell-based, variola minor; details: for IC50: LLC-MK2, read-out: IC50 VAR-GAR LLC-MK2
[8] = tested on: MPX Zaire (V79-1-005-Scab); assay: organism not typed; assay type: cell-based, monkeypox; details: for IC50: Vero, read-out: IC50 MPX Vero
[9] = tested on: MPX Zaire (V79-1-005-Scab); assay: organism not typed; assay type: cell-based, monkeypox; details: for IC50: LLC-MK2, read-out: IC50 MPX LLC-MK2
CPX Brighton [10] = assay: organism not typed; assay type: cell-based, cowpox; details: for IC50: Vero, read-out: IC50 CPX Vero
CPX Brighton [11] = assay: organism not typed; assay type: cell-based, cowpox; details: for IC50: LLC-MK2, read-out: IC50 CPX LLC-MK2
VAC Copenhagen [12] = assay: microbe, parasite or virus in culture; assay type: cell-based, vaccinia virus; details: for IC50: Orthopoxvirus vaccinia, Vero, read-out: IC50 VAC Vero
VAC Copenhagen [13] = assay: microbe, parasite or virus in culture; assay type: cell-based, vaccinia virus; details: for IC50: Orthopoxvirus vaccinia, LLC-MK2, read-out: IC50 VAC LLC-MK2

Nc1c2ncn([C@@H]3O[C@H](CO)[C@@H](O)[C@H]3O)c2nc[n+]1[O-] [ANO, Adenosine N1-oxide]
inhibitory activity against the orthopoxviruses tested (in words) [1]: little activity | inhibition of VAC virus replication in vitro (VAC): inhibits VAC virus replication in vitro

Nc1ncnc2c1ncn2C[C@@H](CO)OCP(=O)(O)O [HPMPA, (S)-9-(3-hydroxy-2-phosphonylmethoxypropyl)adenine]
IC50 VAR-BSH Vero [2]: 12.6 µg/mL (≈ 41.6 µM) | Therapeutic index (TI) VAR-BSH Vero [2]: 7.9 | IC50 VAR-BSH LLC-MK2 [3]: 6.1 µg/mL (≈ 20.1 µM) | Therapeutic index (TI) VAR-BSH LLC-MK2 [3]: 16.4 | IC50 VAR-YAM Vero [4]: 11.4 µg/mL (≈ 37.6 µM) | Therapeutic index (TI) VAR-YAM Vero [4]: 8.8 | IC50 VAR-YAM LLC-MK2 [5]: 6.8 µg/mL (≈ 22.4 µM) | Therapeutic index (TI) VAR-YAM LLC-MK2 [5]: 14.7 | IC50 VAR-GAR Vero [6]: 6.6 µg/mL (≈ 21.8 µM) | Therapeutic index (TI) VAR-GAR Vero [6]: 15.2 | IC50 VAR-GAR LLC-MK2 [7]: 4.6 µg/mL (≈ 15.2 µM) | Therapeutic index (TI) VAR-GAR LLC-MK2 [7]: 21.7 | IC50 MPX Vero [8]: 10.9 µg/mL (≈ 35.9 µM) | Therapeutic index (TI) MPX Vero [8]: 9.2 | IC50 MPX LLC-MK2 [9]: 9.2 µg/mL (≈ 30.3 µM) | Therapeutic index (TI) MPX LLC-MK2 [9]: 10.9 | IC50 CPX Vero (CPX Brighton [10]): 8.4 µg/mL (≈ 27.7 µM) | Therapeutic index (TI) CPX Vero (CPX Brighton [10]): 11.9 | IC50 CPX LLC-MK2 (CPX Brighton [11]): 7.7 µg/mL (≈ 25.4 µM) | Therapeutic index (TI) CPX LLC-MK2 (CPX Brighton [11]): 13.0 | IC50 VAC Vero (VAC Copenhagen [12]): 8.1 µg/mL (≈ 26.7 µM) | Therapeutic index (TI) VAC Vero (VAC Copenhagen [12]): 12.3 | IC50 VAC LLC-MK2 (VAC Copenhagen [13]): 8.0 µg/mL (≈ 26.4 µM) | Therapeutic index (TI) VAC LLC-MK2 (VAC Copenhagen [13]): 12.5 | TI against the panel of viruses [1]: 11.9 | mean IC50 against the panel of viruses [1]: 8.4 ± 0.67 µg/mL | Cytotoxicity TC50 Vero (Vero cells): >100 µg/mL | Cytotoxicity TC50 LLC-MK2 (LLC-MK2 cells): >100 µg/mL | inhibition of VAC replication in vitro (VAC): inhibit VAC replication in vitro

NC(=O)NO [Hydroxyurea, hydroxyurea]
inhibitory activity against the orthopoxviruses tested (in words) [1]: inactive

CN1C(=O)/C(=N\NC(N)=S)c2ccccc21 [Methisazone, methisazone]
Therapeutic index (TI) VAR-BSH Vero [2]: 3.0 | IC50 [2]: 34.6 µg/mL (≈ 148 µM) | Therapeutic index (TI) VAR-BSH LLC-MK2 [3]: 2.4 | IC50 [3]: 41.2 µg/mL (≈ 176 µM) | Therapeutic index (TI) VAR-YAM Vero [4]: 2.6 | IC50 [4]: 39 µg/mL (≈ 166 µM) | Therapeutic index (TI) VAR-YAM LLC-MK2 [5]: 2.3 | IC50 [5]: 43.3 µg/mL (≈ 185 µM) | Therapeutic index (TI) VAR-GAR Vero [6]: 4.6 | IC50 [6]: 21.6 µg/mL (≈ 92.2 µM) | Therapeutic index (TI) VAR-GAR LLC-MK2 [7]: 2.3 | IC50 [7]: 44.1 µg/mL (≈ 188 µM) | Therapeutic index (TI) MPX Vero [8]: 1.5 | IC50 [8]: 66.2 µg/mL (≈ 283 µM) | Therapeutic index (TI) MPX LLC-MK2 [9]: 1.2 | IC50 [9]: 80.4 µg/mL (≈ 343 µM) | Therapeutic index (TI) CPX Vero (CPX Brighton [10]): 2.0 | IC50 (CPX Brighton [10]): 49.2 µg/mL (≈ 210 µM) | Therapeutic index (TI) CPX LLC-MK2 (CPX Brighton [11]): 2.2 | IC50 (CPX Brighton [11]): 45.2 µg/mL (≈ 193 µM) | Therapeutic index (TI) VAC Vero (VAC Copenhagen [12]): 2.2 | IC50 (VAC Copenhagen [12]): 45.8 µg/mL (≈ 195 µM) | Therapeutic index (TI) VAC LLC-MK2 (VAC Copenhagen [13]): 1.9 | IC50 (VAC Copenhagen [13]): 52 µg/mL (≈ 222 µM) | Cytotoxicity TC50 Vero (Vero cells; African green monkey): >100 µg/mL | Cytotoxicity TC50 LLC-MK2 (LLC-MK2 cells; rhesus monkey): >100 µg/mL

Nc1ncnc2c1ncn2CCOCP(=O)(O)O [PMEA, 9-[2-(phosphonomethoxy)ethyl]adenine]
inhibitory activity against the orthopoxviruses tested (in words) [1]: Neither PMEA nor bis-POM-PMEA was effective

NC(=O)c1csc([C@@H]2O[C@H](CO)[C@@H](O)[C@H]2O)n1 [Tiazofurin, 2-β-D-ribofuranosylthiazole-4-carboxamide]
Therapeutic index (TI) VAR-BSH Vero [2]: 4.0 | IC50 [2]: 22.6 µg/mL (≈ 86.8 µM) | Therapeutic index (TI) VAR-BSH LLC-MK2 [3]: 18.2 | IC50 [3]: 5.5 µg/mL (≈ 21.1 µM) | Therapeutic index (TI) VAR-YAM Vero [4]: 4.2 | IC50 [4]: 21.4 µg/mL (≈ 82.2 µM) | Therapeutic index (TI) VAR-YAM LLC-MK2 [5]: 25.6 | IC50 [5]: 3.9 µg/mL (≈ 15 µM) | Therapeutic index (TI) VAR-GAR Vero [6]: 4.5 | IC50 [6]: 19.8 µg/mL (≈ 76.1 µM) | Therapeutic index (TI) VAR-GAR LLC-MK2 [7]: 16.4 | IC50 [7]: 6.1 µg/mL (≈ 23.4 µM) | Therapeutic index (TI) MPX Vero [8]: 4.5 | IC50 [8]: 20 µg/mL (≈ 76.8 µM) | Therapeutic index (TI) MPX LLC-MK2 [9]: 19.2 | IC50 [9]: 5.2 µg/mL (≈ 20 µM) | Therapeutic index (TI) CPX Vero (CPX Brighton [10]): 2.6 | IC50 (CPX Brighton [10]): 34.6 µg/mL (≈ 133 µM) | Therapeutic index (TI) CPX LLC-MK2 (CPX Brighton [11]): 9.1 | IC50 (CPX Brighton [11]): 11 µg/mL (≈ 42.3 µM) | Therapeutic index (TI) VAC Vero (VAC Copenhagen [12]): 1.0 | IC50 (VAC Copenhagen [12]): > 100 µg/mL | Therapeutic index (TI) VAC LLC-MK2 (VAC Copenhagen [13]): 3.0 | IC50 (VAC Copenhagen [13]): 33.3 µg/mL (≈ 128 µM) | IC50 ([1]; LLC-MK2, read-out: mean IC50 on LLC-MK2 cells): 10.8 ± 4.6 µg/mL (≈ 41.5 µM) | IC50 ([1]; Vero, read-out: mean IC50 on Vero cells): 36.4 ± 12.9 µg/mL (≈ 140 µM) | Cytotoxicity TC50 Vero (Vero cells; African green monkey): 90.0 µg/mL | Cytotoxicity TC50 LLC-MK2 (LLC-MK2 cells; rhesus monkey): >100 µg/mL

Nc1nc2c(ncn2COCCO)c(=O)[nH]1 [acyclovir, Acyclovir]
inhibitory activity against the orthopoxviruses tested (in words) [1]: No other test compounds of this group (acyclovir, brovavir, lobucavir, didanosine, ddC, or d4C) showed any activity; also recorded: failed to inhibit orthopoxvirus replication

O=c1[nH]c(=O)n([C@@H]2O[C@H](CO)[C@@H](O)[C@@H]2O)cc1/C=C/Br [brovavir, Brovavir]
inhibitory activity against the orthopoxviruses tested (in words) [1]: No other test compounds of this group (acyclovir, brovavir, lobucavir, didanosine, ddC, or d4C) showed any activity; also recorded: failed to inhibit orthopoxvirus replication

Nc1ccn([C@H]2C=C[C@@H](CO)O2)c(=O)n1 [d4C, 2′,3′-dideoxydidehydrocytidine]
inhibitory activity against the orthopoxviruses tested (in words) [1]: No other test compounds of this group (acyclovir, brovavir, lobucavir, didanosine, ddC, or d4C) showed any activity

Nc1ccn([C@H]2CC[C@@H](CO)O2)c(=O)n1 [ddC, zalcitabine]
inhibitory activity against the orthopoxviruses tested (in words) [1]: No other test compounds of this group (acyclovir, brovavir, lobucavir, didanosine, ddC, or d4C) showed any activity

O=c1[nH]cnc2c1ncn2[C@H]1CC[C@@H](CO)O1 [didanosine]
inhibitory activity against the orthopoxviruses tested (in words) [1]: No other test compounds of this group (acyclovir, brovavir, lobucavir, didanosine, ddC, or d4C) showed any activity

O=C1Nc2ccc(Cl)cc2[C@@](C#CC2CC2)(C(F)(F)F)O1 [efavirenz]
inhibitory activity against the orthopoxviruses tested (in words) [1]: inactive

Nc1nc(=O)c2ncn([C@@H]3C[C@H](CO)[C@H]3CO)c2[nH]1 [lobucavir, [1R(1α,2β,3α)]-9-[2,3-bis(hydroxymethyl)cyclobutyl]guanine]
inhibitory activity against the orthopoxviruses tested (in words) [1]: No other test compounds of this group (acyclovir, brovavir, lobucavir, didanosine, ddC, or d4C) showed any activity; also recorded: failed to inhibit orthopoxvirus replication

Cc1c(O)cccc1C(=O)N[C@@H](CSc1ccccc1)[C@H](O)CN1C[C@H]2CCCC[C@H]2C[C@H]1C(=O)NC(C)(C)C [nelfinavir, Nelfinavir]
inhibitory activity against the orthopoxviruses tested (in words) [1]: inactive

CC(C)c1nc(CN(C)C(=O)N[C@H](C(=O)N[C@@H](Cc2ccccc2)C[C@H](O)[C@H](Cc2ccccc2)NC(=O)OCc2cncs2)C(C)C)cs1 [ritonavir, Ritonavir]
inhibitory activity against the orthopoxviruses tested (in words) [1]: inactive

CC(C)(C)NC(=O)[C@@H]1C[C@@H]2CCCC[C@@H]2CN1C[C@@H](O)[C@H](Cc1ccccc1)NC(=O)[C@H](CC(N)=O)NC(=O)c1ccc2ccccc2n1 [saquinavir, Saquinavir]
inhibitory activity against the orthopoxviruses tested (in words) [1]: inactive

Cc1cn([C@H]2C=C[C@@H](CO)O2)c(=O)[nH]c1=O [stavudine]
inhibitory activity against the orthopoxviruses tested (in words) [1]: inactive

Cc1cn([C@H]2C[C@H](N=[N+]=[N-])[C@@H](CO)O2)c(=O)[nH]c1=O [zidovudine]
inhibitory activity against the orthopoxviruses tested (in words) [1]: inactive
